Here are results for 16 molecules from PubChem BioAssay (NCI).

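Values below derive from 48-hour exposures of cells grown in 96-well plates, with endpoints linearly interpolated between the two concentrations bracketing the appropriate inhibition level. TGI is the concentration that stops growth completely.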 Where a SMILES comes first, the peptide text is derived from it. The star is where a group is joined. ONb = O=[N+]([O-])c1ccc(CO*)cc1; Boc = CC(C)(C)OC(=O)*

What all share (test): growth of human tumour cells (NCI), 48 h
Assay [1] concerns CAKI-1 renal.
The test system of assay [2] is CCRF-CEM leukemia.
The subject of assay [3] is DU-145 prostate.
In assay [4] the test system is HCT-116 colon.
For assay [5], the system named is HOP-62 NSCLC.
For assay [6], the system named is IGROV1 ovarian.
The subject of assay [7] is K-562 leukemia.
The test system of assay [8] is KM12 colon.
The subject of assay [9] is M14 melanoma.
Assay [10] deals with MDA-N.
The test system of assay [11] is NCI-H226 lung.
Assay [12] deals with OVCAR-5 ovarian.
Assay [13] has as its system PC-3 prostate.
Assay [14] deals with SF-539 CNS.
In assay [15] the test system is SK-MEL-2 melanoma.
The subject of assay [16] is SK-MEL-5 melanoma.
For assay [17], the system named is SK-OV-3 ovarian.
Assay [18] concerns UACC-257 melanoma.
For assay [19], the system named is MALME-3M melanoma.

In the case of `CCCCCCCCCCCCCC[S+](C)C`, the TGI was greater than 10 µM in [1]; 3.25 µM in assay [2]; greater than 10 µM in [3]; greater than 10 µM in [4]; 3.87 µM in [5]; 2.33 µM in [6]. Further, the TGI was 4.68 µM in [7]; 2.95 µM in assay [8]; 3.57 µM in assay [9]; 4.15 µM in assay [10]; 5.13 µM in assay [11]; greater than 10 µM in assay [12]. For the same molecule, the TGI in [13] was 2.98 µM; in [14], 2.79 µM; in assay [15], 5.13 µM; in assay [16], 2.97 µM; in assay [17], greater than 10 µM; in assay [18], 6.99 µM.

Regarding `O=C(Cc1nccc2c1[nH]c1ccccc12)OC1C#CCSCC#C/C=C\1` (centres undefined), the TGI in assay [1], in assay [2], in [3], in [4], in [5] and in [6] was greater than 100 µM in each case. In addition, the TGI in [7], in assay [8], in [9], in assay [19], in assay [10] and in [11] was greater than 100 µM in each case. Besides, the TGI in assay [13], in assay [14], in assay [16], in assay [17] and in assay [18] was greater than 100 µM throughout.

On to `CSCCCNC(=O)c1csc(-c2csc(C(CNC(=O)OC(C)(C)C)CNC(=O)OC(C)(C)C)n2)n1`, for which the TGI in [1] is greater than 100 µM; in [2] it was 44 µM; in assay [3], greater than 100 µM; in assay [4] it was greater than 100 µM; in [5], greater than 100 µM; in [6] it was greater than 100 µM. Further, the TGI in [7], in [8], in assay [9], in [10], in assay [11] and in assay [12] was greater than 100 µM each time. The TGI in [13] was greater than 100 µM; in assay [14], greater than 100 µM; in [15] it was 73.7 µM; in assay [16], greater than 100 µM; in assay [17], greater than 100 µM; in assay [18], greater than 100 µM.

Consider `CN1C(=O)[C@@H]2[C@@H]3c4ccccc4N(S(=O)(=O)C(F)(F)F)[C@@H]3c3[nH]c4ccccc4c3[C@@H]2C1=O`, for which the TGI was greater than 100 µM in [1]; greater than 100 µM in [2]; greater than 100 µM in assay [3]; greater than 100 µM in assay [4]; greater than 100 µM in assay [5]; 5.43 µM in assay [6]. Further, the TGI in assay [7], in assay [10], in assay [11], in assay [12], in assay [13] and in [14] was greater than 100 µM throughout. In addition, the TGI in assay [15], in assay [16], in [17] and in assay [18] was greater than 100 µM in each case.

`COC(=O)/C=C/c1ccc2c(c1)CC1(C2)Cc2cc3c(cc2C1=O)CCC3` (centres undefined): the TGI in [1], in assay [2], in assay [3], in [4], in assay [6] and in [7] was greater than 100 µM each time. Further, the TGI in assay [8], in [9], in assay [19], in assay [10], in assay [11] and in [13] was greater than 100 µM in each case. The TGI in assay [14], in assay [15], in assay [16] and in [18] was greater than 100 µM throughout.

As to `COc1ccc(/C=C2\CCC(CNc3ccc(OC)cc3)C2=O)cc1` (centres undefined), the TGI is 41 µM in [1]; 29.9 µM in assay [2]; greater than 65.4 µM in assay [3]; 23.2 µM in assay [4]; greater than 100 µM in assay [5]; 19.2 µM in assay [6]. In addition, the TGI in [7] is greater than 33.3 µM; in assay [8], 23.8 µM; in [9], 34.9 µM; in assay [19] it was 47.3 µM; in assay [10] it was 30.8 µM; in assay [11], greater than 100 µM. The TGI in assay [12] was 38.1 µM; in [13] it was 37 µM; in [14] it was 36.4 µM; in [16], 35.2 µM; in assay [17], greater than 100 µM; in [18], 34.5 µM.

As for `CCOc1ccc(/C=N/[N+](C)(C)C)cc1OCC`, the TGI in [1], in assay [2], in assay [3], in [4], in assay [5] and in [6] was greater than 10 µM each time. The TGI in assay [7], in assay [8], in [9], in assay [19], in assay [10] and in assay [12] was greater than 10 µM in each case. Further, the TGI in assay [13], in [14], in assay [16], in assay [17] and in [18] was greater than 10 µM each time.

For the molecule `CC(C)CC(NC(=O)OC(C)(C)C)C(=O)NC(CCC(=O)OCc1ccc([N+](=O)[O-])cc1)C(=O)OCc1ccc([N+](=O)[O-])cc1` (stereo not drawn) (Boc-Leu-Glu(ONb)-ONb; configuration not given here), the TGI is greater than 100 µM in [1]; 57.5 µM in assay [2]; 44.9 µM in assay [3]; greater than 100 µM in assay [4]; greater than 100 µM in [5]; 47.6 µM in [6]. Besides, the TGI is 39.4 µM in assay [7]; 57.8 µM in [9]; greater than 100 µM in [19]; greater than 100 µM in [10]; greater than 100 µM in [12]; greater than 100 µM in assay [13]. The TGI in [14] is 37.2 µM; in assay [15], 78.3 µM; in assay [18], greater than 100 µM.

Regarding `CCSc1cc(=O)n(C)c(=O)n1C`, the TGI in assay [1], in [2], in [3], in assay [4], in assay [5] and in assay [8] was greater than 100 µM in each case. For the same molecule, the TGI in assay [9], in assay [19], in [10], in assay [11], in [12] and in assay [13] was greater than 100 µM in each case. Further, the TGI in [14], in assay [15], in assay [16], in [17] and in [18] was greater than 100 µM throughout.

In the case of `CC(=C(C(N)=O)C(N)=O)C1C=C(c2cccs2)CC(c2ccc(Cl)cc2)=C1O` (centres undefined), the TGI in [1] was greater than 100 µM; in assay [2] it was 79.4 µM; in assay [3], greater than 100 µM; in [4], greater than 100 µM; in [5], greater than 100 µM; in [6], greater than 100 µM. For the same molecule, the TGI in assay [7], in [8], in assay [9], in assay [10], in assay [11] and in assay [12] was greater than 100 µM each time. For the same molecule, the TGI in [13], in assay [15], in assay [16], in assay [17] and in [18] was greater than 100 µM in each case.

As to `COc1cc(COC(=O)N(CC(=O)O)c2ccccc2)c([N+](=O)[O-])cc1OC`, the TGI in [2], in assay [3], in assay [5], in assay [6], in [7] and in assay [8] was greater than 100 µM in each case. Besides, the TGI in [9], in assay [19], in assay [10], in assay [11], in [12] and in assay [13] was greater than 100 µM each time. Moreover, the TGI in assay [14], in assay [16], in [17] and in assay [18] was greater than 100 µM in each case.

`O=C1/C(=C/c2ccccc2O)N=C(c2ccccc2)N1c1nc2ccccc2s1`: the TGI in assay [1] was greater than 100 µM; in [2], greater than 100 µM; in [3], greater than 100 µM; in assay [4], 77.5 µM; in assay [5], greater than 100 µM; in assay [6], greater than 100 µM. Moreover, the TGI is greater than 100 µM in assay [7]; greater than 100 µM in assay [8]; 85.6 µM in assay [9]; 8.55 µM in assay [10]; 77.8 µM in assay [11]; greater than 100 µM in [12]. Also, the TGI was 43.8 µM in assay [13]; 57 µM in assay [14]; 43.4 µM in [15]; 23.3 µM in [16]; greater than 100 µM in assay [17]; 79.2 µM in assay [18].

Take `c1csc(-c2cc(-c3cccs3)c(-c3cccs3)s2)c1`: the TGI in assay [1], in [2], in assay [3], in assay [4], in assay [5] and in assay [6] was greater than 100 µM in each case. Further, the TGI in assay [7], in [8], in assay [9], in [19], in assay [10] and in assay [11] was greater than 100 µM each time. The TGI in [12], in assay [13], in assay [14], in assay [16], in assay [17] and in assay [18] was greater than 100 µM each time.

As to `CC1C2CC(C(S(=O)(=O)N3CCOCC3)/C2=N\O)C1(C)C` (centres undefined), the TGI in assay [1], in [2], in assay [3], in [4], in assay [5] and in assay [6] was greater than 100 µM throughout. The TGI in assay [7], in assay [8], in assay [9], in [19], in assay [10] and in assay [11] was greater than 100 µM in each case. Besides, the TGI in [13], in assay [14], in assay [16], in assay [17] and in [18] was greater than 100 µM each time.

Consider `O=C(/C=C/c1ccc(/C=C/C(=O)c2ccc(O)cc2)cc1)c1ccc(O)cc1`, for which the TGI in [1], in assay [2], in assay [3], in assay [4], in [5] and in assay [7] was greater than 100 µM in each case. Also, the TGI in assay [8], in [9], in assay [10], in assay [11], in assay [12] and in [13] was greater than 100 µM in each case. Further, the TGI in assay [14], in assay [15], in assay [16] and in [18] was greater than 100 µM each time.

On to `O=C(O)c1cnc2[nH]ccn2c1=O`, for which the TGI in assay [2], in assay [3], in assay [4], in [5], in [6] and in assay [7] was greater than 100 µM each time. Also, the TGI in assay [9], in assay [19], in assay [10], in assay [11], in [12] and in [13] was greater than 100 µM in each case. In addition, the TGI in assay [16], in assay [17] and in [18] was greater than 100 µM in each case.
